Like-named read-outs stand apart in the source and are kept apart here. Peptide text beside a SMILES is read from it.
Key:
[1] = tested on: nitric oxide synthases (nNOS, iNOS, eNOS); conditions: literature, cited from earlier work; for isoform selectivity factor: methyl: eNOS and nNOS over iNOS, ethyl: iNOS over nNOS and eNOS
[2] = molecular target: neuronal nitric oxide synthase (nNOS) from bovine brain (Bos taurus, UniProt A0A3Q1M6M2); assay: Hemoglobin capture assay of nitric oxide formation, nNOS; conditions: for nNOS/eNOS selectivity: nNOS over eNOS; for time-dependent inhibition of any of the isoforms: nNOS, iNOS and eNOS
Sequence of neuronal nitric oxide synthase (nNOS) from bovine brain (A0A3Q1M6M2 entry or part of it): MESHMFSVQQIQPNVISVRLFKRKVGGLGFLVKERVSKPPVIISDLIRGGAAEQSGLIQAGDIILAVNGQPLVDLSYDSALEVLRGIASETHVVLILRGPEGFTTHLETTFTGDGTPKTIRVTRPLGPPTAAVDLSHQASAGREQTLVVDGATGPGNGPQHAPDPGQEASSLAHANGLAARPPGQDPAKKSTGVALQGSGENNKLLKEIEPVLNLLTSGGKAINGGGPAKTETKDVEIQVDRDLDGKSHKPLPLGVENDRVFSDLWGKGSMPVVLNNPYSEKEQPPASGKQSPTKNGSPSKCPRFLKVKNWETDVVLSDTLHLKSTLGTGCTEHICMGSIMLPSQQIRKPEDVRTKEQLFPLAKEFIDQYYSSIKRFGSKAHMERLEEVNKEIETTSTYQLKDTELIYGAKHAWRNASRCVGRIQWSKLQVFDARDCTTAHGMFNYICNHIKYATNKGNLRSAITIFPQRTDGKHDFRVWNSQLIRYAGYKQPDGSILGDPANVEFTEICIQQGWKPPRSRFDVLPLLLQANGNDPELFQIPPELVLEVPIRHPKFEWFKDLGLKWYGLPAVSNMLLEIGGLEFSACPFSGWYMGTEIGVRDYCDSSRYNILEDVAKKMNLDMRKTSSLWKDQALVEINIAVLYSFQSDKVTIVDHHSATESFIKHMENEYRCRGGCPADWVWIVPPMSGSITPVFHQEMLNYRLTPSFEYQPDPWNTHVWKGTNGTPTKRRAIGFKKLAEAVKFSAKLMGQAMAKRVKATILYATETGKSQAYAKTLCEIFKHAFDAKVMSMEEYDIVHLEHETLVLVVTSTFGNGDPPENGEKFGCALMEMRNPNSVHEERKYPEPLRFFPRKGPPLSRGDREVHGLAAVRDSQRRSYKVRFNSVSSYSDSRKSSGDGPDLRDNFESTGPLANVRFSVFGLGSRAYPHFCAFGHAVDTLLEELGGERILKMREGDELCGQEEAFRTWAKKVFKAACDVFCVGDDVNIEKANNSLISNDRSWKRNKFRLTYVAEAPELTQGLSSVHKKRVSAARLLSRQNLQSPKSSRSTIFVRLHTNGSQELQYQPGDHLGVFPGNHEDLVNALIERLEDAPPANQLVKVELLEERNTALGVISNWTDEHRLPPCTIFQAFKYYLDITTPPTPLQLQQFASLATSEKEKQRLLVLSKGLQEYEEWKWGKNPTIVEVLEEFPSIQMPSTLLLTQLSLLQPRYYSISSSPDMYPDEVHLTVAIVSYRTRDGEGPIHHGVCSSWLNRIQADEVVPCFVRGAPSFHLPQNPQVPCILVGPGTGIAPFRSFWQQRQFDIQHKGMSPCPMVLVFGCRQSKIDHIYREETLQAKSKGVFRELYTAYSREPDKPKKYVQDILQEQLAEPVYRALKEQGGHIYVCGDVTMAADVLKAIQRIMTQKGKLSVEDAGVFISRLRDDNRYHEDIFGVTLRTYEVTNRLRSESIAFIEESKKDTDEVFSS
Description: (§1) Nitric oxide formation was measured by using the hemoglobin capture assay. […] The production of nitric oxide by eNOS was measured as described. […] All assays were in a final volume of 600 μL and were initiated with enzyme.
(§2) The reversible inhibition of NOS by the dipeptide analogs was studied under initial rate conditions with the hemoglobin assay as described above. […] With various L-arginine and inhibitor concentrations.

[3] = molecular target: T1, recombinant bovine endothelial nitric oxide synthase (eNOS) (Bos taurus, UniProt P29473); assay: Hemoglobin capture assay of nitric oxide formation, eNOS; format: biochemical; conditions: for selectivity of eNOS over iNOS: Table 2 dipeptides
T1 construct: made in house; host or cells: E. coli
Description: as §1, §2

[4] = molecular target: recombinant murine macrophage nitric oxide synthase (iNOS) (Mus musculus, UniProt P29477); assay: Hemoglobin capture assay of nitric oxide formation, iNOS; conditions: for iNOS/eNOS selectivity: Table 2 dipeptides
Description: as §1, §2

[5] = read-out: Ki nNOS, Table 2, Dixon plots
[6] = read-out: Ki iNOS, Table 2, Dixon plots, ^a = uncompetitive inhibition
[7] = N-substituted L-arginines, ratio of the inverse of the Ki values (IC50 for methyl, ethyl)

For `CC1CCN=C(N)S1` (stereo not drawn) [2-Amino-5,6-dihydro-6-methyl-4H-1,3-thiazine], the “selectivity in favor of iNOS” value [1] is given as 10-40 fold.
For `N=C(N)NN` [Aminoguanidine], the “selectivity for iNOS over eNOS” value [1] is given as 500 fold and the “selectivity for iNOS over nNOS” value [1] is given as 50 fold.
For `CC(=N)NCCCC[C@H](N)C(=O)O` [L-N^6-(1-Iminoethyl)lysine], the “selectivity for iNOS over eNOS” value [1] is given as 30 fold and the “selectivity for iNOS over nNOS” value [1] is given as 13 fold.
In the case of `NC(=NCCC[C@H](N)C(=O)O)N[N+](=O)[O-]` [N-nitro-L-arginine, N^ω --Nitro-L-arginine, reference compound], the “selectivity for nNOS over iNOS” value [1] is given as “about 300 fold”, the Ki ([2]; read-out: KI (time-dependent inhibition), with nNOS) is given as 9.3 µM and the kinact ([2]; with nNOS) is given as 0.132 min⁻¹.
For `CSC(N)=NCCC[C@H](N)C(=O)O` [S-Methyl-L-thiocitrulline], the “selectivity for nNOS than eNOS” value [1] is given as 10 fold.
For `CCSC(N)=NCCC[C@H](N)C(=O)O` [S-ethyl-L-thiocitrulline], the “selectivity for nNOS than eNOS” value [1] is listed as 50 fold.
In the case of `CCSC(=N)N` [S-ethylisothiourea], the “selectivity in favor of iNOS” value [1] is given as 10-40 fold.
For `COC(=O)[C@@H](CCCN=C(N)N[N+](=O)[O-])NC(=O)[C@H](N)Cc1ccccc1` [compound 12, D-Phe-D-Arg^NO2 -OMe] (HELM PEPTIDE1{[dF].[N=C(NCCC[C@@H](N[*:1])C(=O)[*:2])N[N+](=O)[O-]].[CO[*:1]]}$$$$V2.0), the Ki ([3]; Table 2, Dixon plots) was 5 µM, the “selectivity of eNOS over iNOS” value [3] was 714 fold and the nNOS/eNOS selectivity ([2]; Table 2 dipeptides) was 2.5. The “time-dependent inhibition of any of the isoforms” value [2] was “None”, the Ki [2, 5] was 2 µM and the iNOS/eNOS selectivity [4] was 0.0014. It also gave a Ki [4, 6] of 3600 µM.
In the case of `N=C(NCCC[C@@H](NC(=O)[C@H](N)Cc1ccccc1)C(=O)O)N[N+](=O)[O-]` [compound 13, D-Phe-D-Arg^NO2] (HELM PEPTIDE1{[dF].[N=C(NCCC[C@@H](N[*:1])C(=O)O)N[N+](=O)[O-]]}$$$$V2.0), the Ki ([3]; Table 2, Dixon plots) is reported as 90 µM, the “selectivity of eNOS over iNOS” value [3] is reported as 152 fold and the nNOS/iNOS selectivity ([2]; Table 2 dipeptides, in favor of nNOS over iNOS) is reported as 800. The nNOS/eNOS selectivity ([2]; Table 2 dipeptides) was 5.3, the “time-dependent inhibition of any of the isoforms” value [2] was “None” and the Ki [2, 5] was 17 µM. It also gave an iNOS/eNOS selectivity [4] of 0.0066 and a Ki [4, 6] of 13600 µM.
For `CCNC(=N)NCCC[C@H](N)C(=O)O` [ethyl, N^ω -ethyl-L-arginine, reference compound], the IC50 [3] is given as 9.5 µM, the isoform selectivity factor ([1]; listed as N^ω --ethyl-L-arginine) is given as roughly 2 and the isoform selectivity factor ([1]; listed as N^ω -ethyl-L-arginine) is given as “about 2”. The IC50 [2] was 16 µM, the “Selectivity nNOS/eNOS” value [2, 7] was 0.6 and the “Selectivity nNOS/iNOS” value [2, 7] was 0.4. The IC50 [4] was 6.1 µM.
In the case of `CCCNC(=N)NCCC[C@H](N)C(=O)O` [propyl, N^ω -Propyl-L-arginine], the “type of reversible inhibition of eNOS” value ([3]; Cornish-Bowden replots) is reported as “competitive inhibitor”, the Ki ([3]; Table 1) is reported as 8.5 µM and the Ki [2] is reported as 0.057 µM. The “type of reversible inhibition of nNOS” value [2] was “competitive inhibitor”, the Ki [4] was 180 µM and the “type of reversible inhibition of iNOS” value ([4]; Cornish-Bowden replots) was “competitive inhibitor”.
